PubChem BioAssay (NCI)
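Tested at 5 concentrations; 48 h exposure; 96-well plates; endpoints linearly interpolated, else capped at highest concentration. TGI marks complete inhibition of growth.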

Tests used:
Assay in all cases: NCI anticancer screen, dose series, 48 h
LXFL 529 NSCLC = system: LXFL 529 NSCLC
XF 498 CNS = system: XF 498 CNS
KM20L2 colon = system: KM20L2 colon
M19-MEL melanoma = system: M19-MEL melanoma
UO-31 renal = system: UO-31 renal
NCI-H460 lung = system: NCI-H460 lung
786-0 renal = system: 786-0 renal
HCT-15 colon = system: HCT-15 colon
DMS 273 small cell lung = system: DMS 273 small cell lung
SNB-78 CNS = system: SNB-78 CNS
HCT-116 colon = system: HCT-116 colon
DMS 114 small cell lung = system: DMS 114 small cell lung
HOP-18 NSCLC = system: HOP-18 NSCLC
DLD-1 colon = system: DLD-1 colon
SK-OV-3 ovarian = system: SK-OV-3 ovarian
BT-549 breast = system: BT-549 breast
MDA-MB-231 breast = system: MDA-MB-231 breast

Structure (SMILES)	TGI (LXFL 529 NSCLC) [µM]	TGI (XF 498 CNS) [µM]	TGI (KM20L2 colon) [µM]	TGI (M19-MEL melanoma) [µM]	TGI (UO-31 renal) [µM]	TGI (NCI-H460 lung) [µM]	TGI (786-0 renal) [µM]	TGI (HCT-15 colon) [µM]	TGI (DMS 273 small cell lung) [µM]	TGI (SNB-78 CNS) [µM]	TGI (HCT-116 colon) [µM]	TGI (DMS 114 small cell lung) [µM]	TGI (HOP-18 NSCLC) [µM]	TGI (DLD-1 colon) [µM]	TGI (SK-OV-3 ovarian) [µM]	TGI (BT-549 breast) [µM]	TGI (MDA-MB-231 breast) [µM]
CC(C)(C)S(=O)OC12CC3CC(CC(C3)C1)C2 (stereo not given)	> 100	> 100	> 100	> 100	> 100	> 100	> 100	> 100	> 100	> 100	> 100	> 100					
COc1ccc2c(c1)CCC(OS(=O)(=O)CC13CCC(CC1=O)C3(C)C)C2=O (stereo not given)	> 100	93.9	37.8	> 100	> 100	38.6	40.4	92	58.4		53.3	73.3	78.2	> 100			
O=C(CCN1CCOCC1)C(=Cc1ccccc1)C(=O)CCN1CCOCC1		12.8	25	7.64	27.6	28.3		4.74	26	8.5	5.5		30.6	3.84	31.1		
C[N+](C)=c1nc(N2CCc3ccccc3C2)ss1	> 100		> 100	> 100	> 100	> 100	> 100	> 100	> 100	> 100	> 100	> 100	> 100	> 100	> 100		
CC(=O)NNc1nc(C)c(C(=O)NNC(=O)C(=O)Nc2c(C)cccc2C(C)(C)C)s1	> 100	> 100	> 100	> 100	> 100	> 100		> 100	> 100	> 100	> 100			> 100	> 100		
COC(=O)c1ccc(NCc2cc(O)ccc2O)cc1	17.9	9.63	> 72.7	33.7	26.3	52.2	22.3	19.5	> 54.8	52.1	35.7	8.04	27.4	40.8	48.8	2.63	
O=C(CC1C(=O)c2ccccc2C1=C1C(=O)c2ccccc2C1=O)c1ccccc1 (stereo not given)	> 100	> 100	> 100	> 100	> 100	> 100	> 100	> 100	> 100	> 100		> 100	> 100	> 100	> 100		
O=C1c2ccccc2C(=O)c2oc(Br)cc21					2.85	2.64	2.98	1.91			2.7				6.61	3.11	7.32
NCc1cc(O)c(O)c(O)c1	> 100	> 100	> 100	> 100	> 100	> 100	> 100	> 100	> 100	> 100	> 100	> 100	> 100	> 100	> 100		
CCCC[C@H]1CCN2C[C@@H](O)[C@@H](O)[C@H]2[C@@H]1O					> 100	> 100	> 100	> 100			> 100				> 100	> 100	> 100
CC[C@@H]1/C=C/C=C/C[C@H](C)[C@@H](O)[C@](C)(O)C(=O)[C@H](C)[C@@H](O)[C@H](C)C(=O)[C@H](C)[C@@H](O)[C@H](C)/C=C/C(=O)O[C@H]2[C@@H](C)[C@@H](CC1)O[C@@]1(CC[C@@H](C)[C@@H](CC(C)O)O1)[C@@H]2C (stereo not given in full)					12.3	4.25	4.45	11.3			3.11				14.5	4.94	6.65
O=c1oc2ccc([N+](=O)[O-])cc2c(Nc2ccc3c(c2)S(=O)(=O)c2ccccc2O3)c1[N+](=O)[O-]					> 100	> 100	> 100	> 100			> 100				> 100	> 100	> 100
CC(C)(C)OC(=O)N(CCCCNCc1ccc2ccccc2c1)CCCNCc1ccc2ccccc2c1					3.17	2.18	2.8	3.12			2.4				3.56	3.25	2.28
O=c1[nH]c2c(c(=O)[nH]1)SSC2					24.2	27.2	17.5	> 91.9			13.8				50.9	6.65	5.15
CN(C)CC1CN=C(NC(=O)Nc2ccccc2)O1 (stereo not given)					> 100	> 100	> 100	> 100			> 100				> 100	> 100	> 100
COc1ccc(NC2CC(C)N(C(=O)c3ccccc3)O2)cc1 (stereo not given)					> 10	> 10	> 10	> 10			> 10				> 10	> 10	> 10
N#Cc1nc(COCCOCc2ccc(F)cc2)oc1N					> 100	> 100	> 100	> 100			> 100				> 100	> 100	> 100
CC1(C)[C@H]2Cc3cc(-c4cc5c(cn4)[C@@H]4C[C@H]([C@@H]5[C@@H]5c6cc(-c7cc8c(cn7)[C@@H]7C[C@H](C8)C7(C)C)ncc6[C@@H]6C[C@H]5C6(C)C)C4(C)C)ncc3[C@@H]1C2					> 100	> 100	> 100	> 100			> 100				> 100	> 100	> 100
COc1ccc(CCNC(=O)[C@H]2CCCC[C@@H]2CCO)cc1OC					> 100	> 100	> 100	> 100			> 100				> 100	> 100	> 100
O=C(/C=C(\O)c1ccccc1)c1cc(-c2ccccc2)n(-c2ccccc2)n1					39.9	98.4	67.8	> 100			> 100				> 100	26.1	64.4
c1ccc(CC2(c3cc4ccccc4[nH]3)OCCO2)nc1					> 100	> 100	> 100	> 100			> 100				> 100	> 100	> 100
CC(=O)O[C@@H](C1C[C@@H](C)[C@H]2[C@@](O)(O1)[C@H](O)[C@@]1(C)C3=CC[C@H]4C(C)(C)[C@@H](OC5OCC(O)C(O)C5O)CC[C@@]45C[C@@]35CC[C@]21C)C(C)(C)O (stereo not given in full)					62.2	40.6	63.6	71.1			41.5				63.9	80.8	37.2
CNCCC=C1c2ccccc2CCc2ccccc21					18.2	28.5	27.7	32.3			27.8				25.2	29.1	> 51.9
C[C@]12CC[C@H](O)CC1=CC[C@@H]1C2CC[C@]2(C)Nc3c(cnn3-c3ccc(F)cc3)CC12 (stereo not given in full)					> 92.4	> 100	16	> 100			> 100				57.3	38.9	> 100
S=C1N=C(Cl)/C(=C\c2ccccc2)N1					> 100	> 100	> 100	> 100			> 100				> 100	> 100	> 100
O=C(CSC1=NNC2(C(=O)N1)c1ccccc1-c1ccccc12)NC(=S)Nc1ccccc1					> 10	> 10	> 10	> 10			> 10				> 10	> 10	> 10
COc1ccc(N2C(=O)CC(c3c[nH]c4ncccc34)C2=O)cc1 (stereo not given)					> 100	> 100	49.7	59.3			45.8				> 100	37.2	40.3
